Reference: US20230285504A1, “INHIBITION OF REPERFUSION INJURY WITH A PSD-95 INHIBITOR” (NONO INC., priority 2020, published 2023)
“Also recorded” adds a separate entry of the source. No end group written: not given here.

Experiments:
[1] = tested on: embolic middle cerebral artery occlusion (eMCAO)
Protocol: Nerinetide (7.6 mg/kg) was administered as an intravenous bolus injection either 30 minutes before, or simultaneously with, the onset of a 60-minute infusion of rt-PA (5.4 mg/kg with a 10% bolus followed by 90% over 60 minutes). […] Experimental timeline. […] Hemispheric Infarct volume measurements 24 hours after eMCAo. […] Percentage of hemispheric brain swelling 24 hours after eMCAo and (D). Neurological scores 24 hours after eMCAo. Treatments were administered intravenously at the times indicated in (A). Bars represent mean±SD, with all individual data points plotted. Significant differences (in B) and (in C) are indicated with an asterisk when compared to the control group/nerinetide alone or with a number sign when compare to the thrombolytic agent (one-way ANOVA post hoc Tukey's correction for multiple comparisons test, *P<0.01 or #P <0.01, respectively) N=12-15 animals/group. Significant differences (in D) are indicated with an asterisk when compared to the control group/nerinetide alone or with a number sign when compare to the thrombolytic agent (Kruskal-Wallis analysis of variance on ranks with a post-hoc Dunn's correction for multiple comparisons test, *P<0.01 or #P<0.01, respectively).
To test this, male Sprague-Dawley rats (10-12 weeks old; 270-310 g; Charles River, Montreal, QC, Canada) were subjected to embolic middle cerebral artery occlusion (eMCAO), produced by the introduction of an autologous blood thrombus into the middle cerebral artery. Reperfusion was achieved by treatment with intravenous alteplase at a total dose of 5.4 mg/kg beginning at 90 minutes after ischemia onset. Alteplase was administered using the human injection protocol in which 10% of the total dose is given as a bolus, with the remainder 90% of the dose being given over a 60-minute infusion. The dose of alteplase was 6 times the human dose, in anticipation that the rat fibrinolytic system may be less sensitive to human recombinant tPA. […] Nerinetide was administered either 30 minutes prior to, or concurrently with, the start of the alteplase administration (FIG. 7A) at a dose of 7.6 mg/kg. […] Infarct volumes, hemispheric swelling and neurological scores were evaluated at 24 hours.

[2] = intravenous over 10 minutes; cited from earlier work
[3] = biological target: protein-protein interactions of PSD-95 with N-Methyl-D-Aspartate glutamate receptors (NMDARs); settings: read-out: IC50 perturbing PSD-95 interaction with NMDARs; cited from earlier work
[4] = biological target: second PDZ domain of PSD-95 protein (Homo sapiens, UniProt P78352); settings: read-out: EC50 binding to second PDZ domain of PSD-95; cited from earlier work
Chain of second PDZ domain of PSD-95 protein (P78352 160-246 limits assumed): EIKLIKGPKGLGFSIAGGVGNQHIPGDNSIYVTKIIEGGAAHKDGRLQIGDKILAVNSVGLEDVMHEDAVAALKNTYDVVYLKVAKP

[5] = Pharmacokinetics of nerinetide in rats with simultaneous alteplase; type: in vivo; settings: rat
Protocol: (§1) A. LC/MS spectrum of nerinetide after incubation with plasmin in PBS. 10 uL aliquots of nerinetide (18 mg/mL) and plasmin (1 mg/mL) were incubated in 500 uL tubes of phosphate-buffered saline at 37 C for 5 min and the reaction stopped by cooling to −80C until tested. The various peaks correspond to the indicated fragments. Insert: Predicted trypsin cleavage sites and actual cleavage sites. (B,C) In-vitro effect of rt-PA on nerinetide content in rat (B) and human (C) plasma. Nerinetide was spiked into the plasma samples at t=0 at a concentration of 65 ug/ml, whereas alteplase (rt-PA) was administered as a 60 min infusion at the indicated concentration (D, E) In-vivo effect of the simultaneous administration of nerinetide and rt-PA on Cmax (D) and AUC (E) in the rat. The nerinetide bolus and alteplase (60 min infusion) were started simultaneously through two separate intravenous lines. Symbols represent mean±SD.
Since the effect of nerinetide in the ESCAPE-NA1 trial was negated by alteplase, we next evaluated the effects of alteplase on pharmacokinetics (PK) of nerinetide in rats. Alteplase was administered at 0.9 mg/kg (human dose) and at 5.4 mg/kg (6 times the human dose) in an infusion that simulated the clinical protocol (10% bolus followed by a 60 min infusion of the remainder). Nerinetide was administered as an intravenous bolus at the start of the alteplase infusion at 7.6 mg/kg.

[6] = In-vitro effect of alteplase (rt-PA) on nerinetide content in rat plasma (HPLC); type: in vitro ADME; settings: 65 ug/ml nerinetide, 37 C, alteplase added over 60 minutes (22.5 ug/ml, 3 times and 6 times)
Protocol: as §1
The concentration of 65 ug/ml of nerinetide represents the theoretical peak concentration in a 75 kg person receiving 2.6 mg/kg dose as a bolus. Alteplase was added over 60 minutes to simulate the clinical dosing approach.

[7] = tested on: transient middle cerebral artery occlusion (tMCAO); test: Dose-response study of nerinetide in transient middle cerebral artery occlusion; type: in vivo; settings: rat tMCAo
Protocol: FIGS. 9A-B: Nerinetide is effective over a dosage range of at least 0.025-25 mg/kg in a rat tMCAo model in (A) reducing infarction size and (B) reducing neurologic deficit.
The cleavage of full-length nerinetide by high dose alteplase was incomplete, raising the possibility that some active drug could still remain to achieve neuroprotection. This was supported in rats by a dose-response study of nerinetide in a model of transient middle cerebral artery occlusion (tMCAO). Nerinetide and lodoxamide was administered to rats intravenously as a bolus injection, 60 minutes after tMCAo. […] Bars in A and represent mean±SD, with all individual data points plotted. […] Vehicle: PBS alone. Scrambled: ADA peptide incapable of binding PSD-95. Doses as low as 0.25 mg/kg produced a significant reduction in infarct volume (P=0.01) and an improvement in neurological function. Doses as low as 0.025 mg/kg were also effective. Doses up to at least 25 mg/kg were also effective with the highest efficacy being at about 15 mg/kg. The observed wide therapeutic range was attributable to nerinetide, and not to the mast cell degranulation inhibitor lodoxamide, which was present in all solutions to avoid potential hypotension due to histamine release.

[8] = PK dose-separation study of nerinetide and alteplase in macaques; type: in vivo, cynomolgus macaques (Macaca fascicularis); settings: macaque
Protocol: We conducted further PK studies to probe the necessary dose-separation interval to mitigate degradation. These studies were conducted in cynomolgus macaques (Macaca fascicularis) to maximize their relevance to humans. Nerinetide was given as a 10-minute intravenous infusion at a dose of 2.6 mg/kg. This dosing regimen was neuroprotective in macaques exposed to stroke by LVO (Cook et al., Nature 483, 213-217 (2012)) and was used in both the Phase 2 ENACT trial (Lancet Neurol 11, 942-950 (2012)) and the ESCAPE-NA1 trial (Lancet 395, 878-887 (2020)). We examined the scenarios in which alteplase administration was started simultaneously with the nerinetide infusion start, at the end of the 10-minute nerinetide infusion, or 10 minutes after the end of nerinetide infusion. Alteplase (1 mg/kg) was administered through a separate intravenous line as a 10% bolus, followed by an infusion of the remaining 90% over 1 hour, as per its clinical use.

[9] = biological target: protein-protein interactions of PSD-95 with neuronal nitric oxide synthase (nNOS) (Homo sapiens, UniProt P78352); settings: read-out: IC50 perturbing PSD-95 interaction with nNOS; cited from earlier work
Chain of protein-protein interactions of PSD-95 with neuronal nitric oxide synthase (nNOS) (P78352 whole entry): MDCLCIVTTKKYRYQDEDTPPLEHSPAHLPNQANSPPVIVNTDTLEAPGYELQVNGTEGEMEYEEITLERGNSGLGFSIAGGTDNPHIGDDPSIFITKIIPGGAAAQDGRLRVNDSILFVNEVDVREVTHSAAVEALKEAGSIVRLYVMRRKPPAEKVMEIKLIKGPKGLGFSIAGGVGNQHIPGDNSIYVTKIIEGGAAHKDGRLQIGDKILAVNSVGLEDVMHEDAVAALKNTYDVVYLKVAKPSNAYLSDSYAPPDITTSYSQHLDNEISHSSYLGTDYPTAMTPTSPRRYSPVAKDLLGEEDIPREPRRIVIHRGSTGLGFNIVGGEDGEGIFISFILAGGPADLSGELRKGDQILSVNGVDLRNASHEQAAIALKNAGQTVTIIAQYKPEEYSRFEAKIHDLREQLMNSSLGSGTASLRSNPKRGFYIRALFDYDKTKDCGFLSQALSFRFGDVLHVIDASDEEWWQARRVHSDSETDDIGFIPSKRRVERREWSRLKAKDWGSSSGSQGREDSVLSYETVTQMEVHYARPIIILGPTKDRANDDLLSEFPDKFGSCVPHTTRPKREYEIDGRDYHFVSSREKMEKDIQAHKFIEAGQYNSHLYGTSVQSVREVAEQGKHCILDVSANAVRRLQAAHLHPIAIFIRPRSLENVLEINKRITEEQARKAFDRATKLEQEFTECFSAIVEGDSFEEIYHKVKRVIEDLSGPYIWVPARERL

[10] = nerinetide alone 7.6 mg/kg, 60 minutes after eMCAO, 24 hours
[11] = nerinetide at 60 minutes followed by alteplase 30 minutes later, 24 hours
[12] = nerinetide 7.6 mg/kg iv bolus with alteplase 0.9 mg/kg (human dose)
[13] = nerinetide 7.6 mg/kg iv bolus with alteplase 5.4 mg/kg started simultaneously
[14] = alteplase started at the end of the 10-minute nerinetide infusion
[15] = nerinetide 2.6 mg/kg 10-minute iv infusion, alteplase 1 mg/kg started simultaneously

In the case of YGRKKRRQRRRKLSSIESDV [nerinetide], the “beneficial effect of nerinetide on infarction volume” value ([1]; nerinetide administered concurrently with alteplase at 60 min after eMCAO) is reported as “eliminated completely”, the infarction volume [1, 10] is reported as 175±40 mm3 and the “reduction of infarction volume” value [1, 10] is reported as 59.2%. The infarct volume reduction ([1]; nerinetide at 60 minutes followed by alteplase 30 minutes later) was 70%, the hemispheric swelling [1, 11] was “reducing hemispheric swelling” and the neurological scores [1, 11] was “improving neurological scores”. The plasma half-life [2] was 5 to 10 min, the IC50 [3] was 1 to 8 µM and the EC50 [4] was roughly 0.007 µM. For the same sequence, the half-life ([5]; plasma, intravenous, 7.6 mg/kg, human equivalent concentrations (FIG. 6D)) was 5 to 10 min, the “change of AUC of nerinetide” value [5, 12] was “non-significant reduction” and the “change of Cmax of nerinetide” value [5, 12] was “non-significant reduction”. For the same sequence, the “lowering of mean AUC of nerinetide” value [5, 13] was 44%, the “lowering of mean Cmax of nerinetide” value [5, 13] was 49.5% and the “nerinetide content in rat plasma on addition of alteplase” value [6] was “reduced the nerinetide content in rat plasma in a concentration-dependent manner”. The “dose of highest efficacy” value ([7]; 24 hours) was “about 15 mg/kg”, the “lowest dose also effective” value ([7]; 24 hours, doses as low as) was 0.025 mg/kg and the “upper dose also effective” value ([7]; 24 hours, doses up to at least) was “at least 25 mg/kg”. For the same sequence, the “dose producing significant reduction in infarct volume (P=0.01) and improvement in neurological function” value ([7]; iv bolus with lodoxamide 60 minutes after tMCAo, 24 hours, doses as low as) was 0.25 mg/kg, the “effective dosage range (reducing infarction size and neurologic deficit)” value ([7]; iv bolus with lodoxamide 60 minutes after tMCAo, read 24 hours) was 0.025-25 mg/kg and the “degradation of Cmax or AUC of nerinetide by alteplase” value ([8]; alteplase 10 minutes after the end of the 10-min nerinetide infusion) was “eliminated degradation of Cmax or AUC by alteplase to within the margin of measurement error; also recorded: substantially reduces cleavage of nerinetide”. For the same sequence, the “reduction in the AUC of nerinetide” value [8, 14] was 32.3%, the “reduction of the Cmax of nerinetide” value [8, 14] was 23.1% and the “reduction in the AUC of nerinetide” value [8, 15] was 53.9%. The “reduction of the Cmax of nerinetide” value [8, 15] was 47.4% and the IC50 [9] was roughly 0.2 µM.
